Patent US20140005163A1 (NOVARTIS AG, priority 2010, published 2014)
Converted amounts (≈) assume the structure as drawn.

Legend:
[1] = system: PKB Ser473 phosphorylation in Rat1-myr-HA-p110 delta cells; assay: Reverse protein array assay, PKB Ser473 phosphorylation in Rat1-myr-p110 delta cells; type: cell-based; details: read-out: p-PKB IC50
Procedure, shortened: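 Cells: Rat1-myr-HA-p110 alpha/beta/delta, seeded ≥20 h. Lysis on ice 10 min; reverse-phase protein array, 4 lysate dilutions; fluorescence read, relative intensity.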

Solubility at pH 6.8 = type: physicochemical; details: pH 6.8, aqueous buffer, thermodynamic from solid; read-out: solubility
Procedure, shortened: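 Solubility was measured at pH 6.8 following the cited Zhou et al. (2007) procedure.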

[2] = system: S6 Ribosomal Protein phosphorylation Ser235/236 in TSC1 null mouse embryo fibroblast (MEF) cells; assay: Reverse protein array assay, S6 Ribosomal Protein phosphorylation Ser235/236 in TSC1 null MEF cells; type: cell-based; details: 1 h, pS6 ribosomal protein Ser235/236, 60 minutes incubation, read-out: p-S6 IC50
Procedure, shortened: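 TSC1−/− MEFs, seeded and held ≥20 h at 37 °C/5% CO2, were exposed to 8-step serial compound dilutions (0.02% DMSO final; DMSO vehicle control) for 60 min at 37 °C. Cells were then lysed on ice for 10 min and lysates spotted onto reverse protein array chips.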

Compound | IC50 [1] | solubility (Solubility at pH 6.8) | IC50 [2]
Cc1nn(CC(=O)N(C)C)cc1-n1c(=O)n(C)c2cnc3ccc(-c4ccc(-n5cccn5)cc4)cc3c21 [Example 51.2, N,N-Dimethyl-2-{3-methyl-4-[3-methyl-2-oxo-8-(4-pyrazol-1-yl-phenyl)-2,3-dihydro-imidazo[4,5-c]quinolin-1-yl]-pyrazol-1-yl}-acetamide] | 22 nM | 4 µg/mL (≈ 7.9 µM) | 1 nM
COCc1cncc(-c2ccc3ncc4c(c3c2)n(-c2cn(C)nc2Cl)c(=O)n4C)c1 [Example 54.2, 1-(3-Chloro-1-methyl-1H-pyrazol-4-yl)-8-(5-methoxymethyl-pyridin-3-yl)-3-methyl-1,3-dihydro-imidazo[4,5-c]quinolin-2-one] | 44 nM | > 435 µg/mL | 1 nM
Cc1nn(C)cc1-n1c(=O)n(C)c2cnc3ccc(-c4cnc5c(c4)nc(N(C)C)n5C)cc3c21 [Example 70, 8-(2-Dimethylamino-3-methyl-3H-imidazo[4,5-b]pyridin-6-yl)-1-(1,3-dimethyl-1H-pyrazol-4-yl)-3-methyl-1,3-dihydro-imidazo[4,5-c]quinolin-2-one] | 275 nM | 47 µg/mL (≈ 101 µM) | 16 nM
Cc1nn(C)c(C)c1-n1c(=O)n(C)c2cnc3ccc(-c4cnc(N)nc4)cc3c21 [Example 81.2, 8-(2-Amino-pyrimidin-5-yl)-3-methyl-1-(1,3,5-trimethyl-1H-pyrazol-4-yl)-1,3-dihydro-imidazo[4,5-c]quinolin-2-one] | 382 nM | 133 µg/mL (≈ 332 µM) | 19 nM
Cc1ncc(-c2ccc3ncc4c(c3c2)n(-c2cn(C)nc2Cl)c(=O)n4C)cc1N [Example 88.1, 8-(5-Amino-6-methyl-pyridin-3-yl)-1-(3-chloro-1-methyl-1H-pyrazol-4-yl)-3-methyl-1,3-dihydro-imidazo[4,5-c]quinolin-2-one] | 15 nM | 3 µg/mL (≈ 7.14 µM) | 2 nM
COc1ccc(-c2ccc3ncc4c(c3c2)n(-c2cn(CCO)nc2C)c(=O)n4C)cn1 [Example 103.1, 1-[1-(2-Hydroxy-ethyl)-3-methyl-1H-pyrazol-4-yl]-8-(6-methoxy-pyridin-3-yl)-3-methyl-1,3-dihydro-imidazo[4,5-c]quinolin-2-one] | 66 nM | 38 µg/mL (≈ 88.3 µM) | 13 nM
CCOc1ccc(-c2ccc3ncc4c(c3c2)n(-c2cn(CCO)nc2C)c(=O)n4C)cn1 [Example 103.2, 8-(6-Ethoxy-pyridin-3-yl)-1-[1-(2-hydroxy-ethyl)-3-methyl-1H-pyrazol-4-yl]-3-methyl-1,3-dihydro-imidazo[4,5-c]quinolin-2-one] | 106 nM | 10 µg/mL (≈ 22.5 µM) | 3 nM
CCOc1ccc(-c2ccc3ncc4c(c3c2)n(-c2cn(CC(=O)N(C)CC)nc2C)c(=O)n4C)cn1 [Example 136, 2-{4-[8-(6-Ethoxy-pyridin-3-yl)-3-methyl-2-oxo-2,3-dihydro-imidazo[4,5-c]quinolin-1-yl]-3-methyl-pyrazol-1-yl}-N-ethyl-N-methyl-acetamide] | 66 nM | 141 µg/mL (≈ 282 µM) | 3 nM
COCCN(C)C(=O)Cn1cc(-n2c(=O)n(C)c3cnc4ccc(-c5ccccc5)cc4c32)c(C)n1 [Example 137, N-(2-Methoxy-ethyl)-N-methyl-2-[3-methyl-4-(3-methyl-2-oxo-8-phenyl-2,3-dihydro-imidazo[4,5-c]quinolin-1-yl)-pyrazol-1-yl]-acetamide] | 595 nM | 427 µg/mL (≈ 881 µM) | 9 nM
CCOc1ccc(-c2ccc3ncc4c(c3c2)n(-c2cn(CC(=O)N3CCC3)nc2C)c(=O)n4C)cn1 [Example 138, 1-[1-(2-Azetidin-1-yl-2-oxo-ethyl)-3-methyl-1H-pyrazol-4-yl]-8-(6-ethoxy-pyridin-3-yl)-3-methyl-1,3-dihydro-imidazo[4,5-c]quinolin-2-one] | 58 nM | 26 µg/mL (≈ 52.3 µM) | 3 nM
CCN(CC)C(=O)Cn1cc(-n2c(=O)n(C)c3cnc4ccc(-c5ccc(C)nc5)cc4c32)c(C)n1 [Example 139, N,N-Diethyl-2-{3-methyl-4-[3-methyl-8-(6-methyl-pyridin-3-yl)-2-oxo-2,3-dihydro-imidazo[4,5-c]quinolin-1-yl]-pyrazol-1-yl}-acetamide] | 70 nM | > 484 µg/mL | 4 nM
CNc1ncc(-c2ccc3ncc4c(c3c2)n(-c2cn(C)nc2C)c(=O)n4C)cc1C(F)(F)F [Example 144.3, 1-(1,3-Dimethyl-1H-pyrazol-4-yl)-3-methyl-8-(6-methylamino-5-trifluoromethyl-pyridin-3-yl)-1,3-dihydro-imidazo[4,5-c]quinolin-2-one] | 11 nM | 44 µg/mL (≈ 94.1 µM) | < 0.5 nM
CNc1ncc(-c2ccc3ncc4c(c3c2)n(-c2cn(C)nc2C)c(=O)n4C)cc1Cl [Example 146.1, 8-(5-Chloro-6-methylamino-pyridin-3-yl)-1-(1,3-dimethyl-1H-pyrazol-4-yl)-3-methyl-1,3-dihydro-imidazo[4,5-c]quinolin-2-one] | 24 nM | > 434 µg/mL | < 0.5 nM
CCn1cc(-n2c(=O)n(C)c3cnc4ccc(-c5cnc(NC)c(Cl)c5)cc4c32)c(C)n1 [Example 146.2, 8-(5-Chloro-6-methylamino-pyridin-3-yl)-1-(1-ethyl-3-methyl-1H-pyrazol-4-yl)-3-methyl-1,3-dihydro-imidazo[4,5-c]quinolin-2-one] | 18 nM | 6 µg/mL (≈ 13.4 µM) | 2 nM
Cc1nn(C(C)C)cc1-n1c(=O)n(C)c2cnc3ccc(-c4cnc(F)c(N)c4)cc3c21 [Example 149.1, 8-(5-Amino-6-fluoro-pyridin-3-yl)-1-(1-isopropyl-3-methyl-1H-pyrazol-4-yl)-3-methyl-1,3-dihydro-imidazo[4,5-c]quinolin-2-one] | 118 nM | 13 µg/mL (≈ 30.1 µM) | 9 nM
CCn1cc(-n2c(=O)n(C)c3cnc4ccc(-c5cnc(F)c(NC)c5)cc4c32)c(C)n1 [Example 150.1, 1-(1-Ethyl-3-methyl-1H-pyrazol-4-yl)-8-(6-fluoro-5-methylamino-pyridin-3-yl)-3-methyl-1,3-dihydro-imidazo[4,5-c]quinolin-2-one] | 21 nM | 5 µg/mL (≈ 11.6 µM) | 1 nM

Further lines, with some results ahead:

IC50 [1] | solubility (Solubility at pH 6.8) | Compound | IC50 [2]
154 nM | > 385 µg/mL | Cc1nn(C)cc1-n1c(=O)n(C)c2cnc3ccc(-c4cncc(N)c4)cc3c21 [Example 45.1, 8-(5-Amino-pyridin-3-yl)-1-(1,3-dimethyl-1H-pyrazol-4-yl)-3-methyl-1,3-dihydro-imidazo[4,5-c]quinolin-2-one] | 43.5 nM
96 nM | 11 µg/mL (≈ 26.5 µM) | CCOc1ncc(-c2ccc3ncc4c(c3c2)n(-c2cn(C)nc2C)c(=O)n4C)cn1 [Example 52, 1-(1,3-Dimethyl-1H-pyrazol-4-yl)-8-(2-ethoxy-pyrimidin-5-yl)-3-methyl-1,3-dihydro-imidazo[4,5-c]quinolin-2-one] | 48 nM
50 nM | 25 µg/mL (≈ 60.3 µM) | CCOc1cncc(-c2ccc3ncc4c(c3c2)n(-c2cn(C)nc2C)c(=O)n4C)c1 [Example 56.1, 1-(1,3-Dimethyl-1H-pyrazol-4-yl)-8-(5-ethoxy-pyridin-3-yl)-3-methyl-1,3-dihydro-imidazo[4,5-c]quinolin-2-one] | 4 nM
86 nM | 27 µg/mL (≈ 61 µM) | CCn1cc(-n2c(=O)n(C)c3cnc4ccc(-c5cncc(OC(C)C)c5)cc4c32)c(C)n1 [Example 58.4, 1-(1-Ethyl-3-methyl-1H-pyrazol-4-yl)-8-(5-isopropoxy-pyridin-3-yl)-3-methyl-1,3-dihydro-imidazo[4,5-c]quinolin-2-one] | 2 nM
204 nM | > 444 µg/mL | COCCOc1cncc(-c2ccc3ncc4c(c3c2)n(-c2cn(C)nc2C)c(=O)n4C)c1 [Example 59.1, 1-(1,3-Dimethyl-1H-pyrazol-4-yl)-8-[5-(2-methoxy-ethoxy)-pyridin-3-yl]-3-methyl-1,3-dihydro-imidazo[4,5-c]quinolin-2-one] | 6 nM
246 nM | 8 µg/mL (≈ 18.2 µM) | Cc1nn(C)cc1-n1c(=O)n(C)c2cnc3ccc(-c4cncc(OCC5CC5)c4)cc3c21 [Example 61, 8-(5-Cyclopropylmethoxy-pyridin-3-yl)-1-(1,3-dimethyl-1H-pyrazol-4-yl)-3-methyl-1,3-dihydro-imidazo[4,5-c]quinolin-2-one] | 1 nM
33 nM | 6 µg/mL (≈ 14 µM) | CCOc1cc(-c2ccc3ncc4c(c3c2)n(-c2cn(C)nc2C)c(=O)n4C)cnc1C [Example 85.1, 1-(1,3-Dimethyl-1H-pyrazol-4-yl)-8-(5-ethoxy-6-methyl-pyridin-3-yl)-3-methyl-1,3-dihydro-imidazo[4,5-c]quinolin-2-one] | 1 nM
631 nM | 13 µg/mL (≈ 31.4 µM) | CCOc1cc(-c2ccc3ncc4c(c3c2)n(-c2cn(C)nc2C)c(=O)n4C)ccn1 [Example 91, 1-(1,3-Dimethyl-1H-pyrazol-4-yl)-8-(2-ethoxy-pyridin-4-yl)-3-methyl-1,3-dihydro-imidazo[4,5-c]quinolin-2-one] | 36 nM
56 nM | 21 µg/mL (≈ 52.1 µM) | Cc1nn(C)cc1-n1c(=O)n(C)c2cnc3ccc(-c4cnc(F)c(N)c4)cc3c21 [Example 149.2, 8-(5-Amino-6-fluoro-pyridin-3-yl)-1-(1,3-dimethyl-1H-pyrazol-4-yl)-3-methyl-1,3-dihydro-imidazo[4,5-c]quinolin-2-one] | 3 nM
